A value given as a limit tells only on which side of the number the result lay.

T1 sequence (Q96QP1 whole entry): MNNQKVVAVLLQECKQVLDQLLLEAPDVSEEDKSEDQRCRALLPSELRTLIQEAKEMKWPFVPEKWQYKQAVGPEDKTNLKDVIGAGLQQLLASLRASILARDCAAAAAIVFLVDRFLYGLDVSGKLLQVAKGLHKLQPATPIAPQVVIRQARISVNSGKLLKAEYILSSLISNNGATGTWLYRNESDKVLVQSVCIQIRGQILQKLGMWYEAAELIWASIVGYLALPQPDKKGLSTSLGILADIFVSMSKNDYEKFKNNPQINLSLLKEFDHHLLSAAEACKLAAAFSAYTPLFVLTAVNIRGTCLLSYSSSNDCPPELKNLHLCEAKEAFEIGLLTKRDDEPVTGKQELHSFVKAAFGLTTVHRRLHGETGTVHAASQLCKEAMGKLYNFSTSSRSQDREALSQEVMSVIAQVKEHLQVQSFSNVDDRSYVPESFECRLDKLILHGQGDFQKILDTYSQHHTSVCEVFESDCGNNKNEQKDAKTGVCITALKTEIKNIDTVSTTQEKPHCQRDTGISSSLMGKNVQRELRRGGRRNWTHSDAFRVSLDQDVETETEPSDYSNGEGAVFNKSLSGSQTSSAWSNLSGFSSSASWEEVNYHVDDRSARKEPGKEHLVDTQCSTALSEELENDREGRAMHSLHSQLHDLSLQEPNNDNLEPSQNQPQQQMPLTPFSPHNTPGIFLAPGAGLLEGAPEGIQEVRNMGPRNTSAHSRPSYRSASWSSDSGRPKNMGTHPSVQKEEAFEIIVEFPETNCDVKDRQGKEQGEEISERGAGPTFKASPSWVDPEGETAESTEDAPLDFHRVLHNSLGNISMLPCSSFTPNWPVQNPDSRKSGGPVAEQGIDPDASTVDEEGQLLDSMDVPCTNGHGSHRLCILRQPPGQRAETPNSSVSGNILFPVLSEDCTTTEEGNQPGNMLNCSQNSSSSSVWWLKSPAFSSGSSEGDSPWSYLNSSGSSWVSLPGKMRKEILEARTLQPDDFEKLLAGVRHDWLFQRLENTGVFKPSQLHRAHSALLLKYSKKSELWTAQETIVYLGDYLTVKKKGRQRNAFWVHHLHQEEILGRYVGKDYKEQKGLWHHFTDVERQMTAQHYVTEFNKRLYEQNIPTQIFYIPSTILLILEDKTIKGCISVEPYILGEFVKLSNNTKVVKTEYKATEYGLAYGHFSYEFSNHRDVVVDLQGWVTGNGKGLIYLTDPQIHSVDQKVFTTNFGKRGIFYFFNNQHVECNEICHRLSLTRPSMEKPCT

The test has as its target T1, ALPK1 (Homo sapiens, UniProt Q96QP1).
T1 construct: endogenous in cells; host or cells: 293T cells
In words: NF-κB luciferase reporter assay in 293T cells (cellular assay). Format: cell-based. How it is done:
The compounds disclosed herein activate NF-κB through ALPK1-TIFA axis as determined by the NF-κB luciferase reporter and TIFA phosphorylation. For NF-κB luciferase assay, the plasmids (pNL2.2-BII-5RE-Luc), and control vector (pRL-TK) were transfected into 293T cells with the Jetprime reagents (Polyplus). NF-κB luciferase activity was determined using the dual luciferase assay kit (Promega) according to the manufacturer's instructions. TIFA phosphorylation upon the treatment with the compounds disclosed herein described in Table 1, were assayed with immunoblotting. Briefly, for the immunoblotting assay, the 293T cells were seeded in 12-well-plates and cultured for 16 h, and treated with indicated compounds for another 2 hours. Subsequently, the cells were collected and sampled as the regular western-blotting method, immunoblotted by the TIFA phosphorylation specific antibody (ab214815, Abcam).
The EC50 of the compounds disclosed herein were determined by the NF-κB luciferase reporter assay using 293T cells described supra. Compounds with indicated concentrations were added to the culture medium of 293T and the NF-κB luciferase activity was determined using the dual luciferase assay kit (Promega) according to the manufacturer's instructions. […] These chemical entities induce strong activation of the immune regulator NF-κB.
A general note: A reporter such as luciferase makes a cellular process visible.
Regarding `C=C[C@@]1(OC)[C@H](O)[C@@H](COP(=O)(S)OP(=O)(O)OC2OC([C@H](COC(C)=O)OC(C)=O)C(OC(C)=O)C(OC(C)=O)C2OC(C)=O)O[C@H]1n1ccc(=O)[nH]c1=O` (stereo partly shown) [Example 45C], the EC50 (as a rule, the concentration giving half of the maximal effect) came out at 9.58 nM.

Turning to `C=C[C@@]1(O)[C@H](O)[C@@H](COP(=O)(S)OP(=O)(O)OC2OC([C@H](COC(=O)CC)OC(C)=O)C(OC(C)=O)C(OC(C)=O)C2OC(C)=O)O[C@H]1n1cnc2c(N)ncnc21` (stereo partly shown) [Example 31H], the EC50 amounted to 0.15 nM.

Regarding `C=C=C[C@@]1(O)[C@H](O)[C@@H](COP(=O)(S)OP(=O)(O)OC2OC([C@@H](O)CO)C(O)C(O)C2O)O[C@H]1n1cnc2c(N)ncnc21` (single isomer, unassigned) [Example 97D], the EC50 is > 1000 nM.

For `C=C[C@@]1(O)[C@H](O)[C@@H](CO[P@](=O)(S)OP(=O)(O)OC2OC([C@H](COC(C)=O)OC(C)=O)C(OC(C)=O)C(OC(C)=O)C2OC(C)=O)O[C@H]1n1cnc2c(N)ncnc21` (single isomer, unassigned) [Example 31O], the EC50 was 21 nM.

Turning to `CC(=O)OC[C@H](OC(C)=O)C1OC(OP(=O)(O)O[P@](=O)(S)OC[C@H]2O[C@@H](n3cnc4c(N)ncnc43)[C@H](N(C)C)[C@@H]2O)C(OC(C)=O)C(OC(C)=O)C1OC(C)=O` (single isomer, unassigned) [Example 35H], the response was half-maximal at 16.7 nM (EC50).

Take `C=C[C@@]1(OC)[C@H](O)[C@@H](COP(=O)(S)OP(=O)(O)OC2OC([C@H](COC(C)=O)OC(C)=O)C(OC(C)=O)C(OC(C)=O)C2OC(C)=O)O[C@@H]1n1ccc(=O)[nH]c1=O` (stereo in doubt) [Example 45E]: the EC50 was determined as 7.77 nM.

`CC(=O)OC[C@H](OC(C)=O)C1OC(OP(=O)(O)O[P@@](=O)(S)OC[C@H]2O[C@@H](n3cnc4c(N)ncnc43)[C@H](N(C)C)[C@@H]2O)C(OC(C)=O)C(OC(C)=O)C1OC(C)=O` (single isomer, unassigned) [Example 35G] registered an EC50 of 16.9 nM.

With `C#C[C@@]1(O)[C@H](O)[C@@H](COP(=O)(S)OP(=O)(O)OC2OC([C@H](COC(C)=O)OC(C)=O)C(OC(C)=O)C(OC(C)=O)C2OC(C)=O)O[C@H]1c1csc2c(N)ncnc12` (stereo partly shown) [Example 264C], the EC50 stood at 48.3 nM.

`CC(=O)OC[C@H](OC(C)=O)C1OC(OP(=O)(O)OP(=O)(S)OC[C@H]2O[C@@H](n3cnc4c(N)ncnc43)[C@H](N)[C@@H]2O)C(OC(C)=O)C(OC(C)=O)C1OC(C)=O` (stereo partly shown) [Example 33C]: the EC50 is 40.2 nM.

`C=C[C@@]1(O)[C@H](O)[C@@H](COP(=O)(S)OP(=O)(O)OC2OC([C@H](COC(C)=O)OC(C)=O)C(OC(C)=O)C(OC(C)=O)C2OC(C)=O)O[C@H]1c1csc(C(N)=O)c1N` (stereo partly shown) [Example 126C] had an EC50 of 231 nM.

The compound `CC(=O)OC[C@H](OC(C)=O)C1OC(OP(=O)(O)OP(=O)(S)OC[C@H]2O[C@@H](n3ccc(=O)[nH]c3=O)[C@H](N(C)C)[C@@H]2O)C(OC(C)=O)C(OC(C)=O)C1OC(C)=O` (stereo partly shown) [Example 40C] came in with an EC50 of 431 nM.

As for `CN(C)[C@@H]1[C@H](O)[C@@H](COP(=O)(S)OP(=O)(O)OC2OC([C@@H](O)CO)C(O)C(O)C2O)O[C@H]1n1cnc2c(N)ncnc21` (stereo partly shown) [Example 35D], the EC50 was 38.7 nM.

Consider `C#C[C@]1(O)[C@H](O)[C@@H](COP(=O)(S)OP(=O)(O)OC2OC([C@H](COC(C)=O)OC(C)=O)C(OC(C)=O)C(OC(C)=O)C2OC(C)=O)O[C@H]1n1ccc(=O)[nH]c1=O` (stereo partly shown) [Example 26E], for which the EC50 is > 3000 nM.

Regarding `CC(=O)OC[C@H](OC(C)=O)C1OC(OP(=O)(O)OP(=O)(S)OC[C@H]2O[C@@H](n3cnc4c(N)ncnc43)[C@H](N3CCC3)[C@@H]2O)C(OC(C)=O)C(OC(C)=O)C1OC(C)=O` (stereo partly shown) [Example 36C], a half-maximal response (EC50) required 1620 nM.

On to `C=C=C[C@@]1(O)[C@H](O)[C@@H](COP(=O)(S)OP(=O)(O)OC2OC([C@H](COC(C)=O)OC(C)=O)C(OC(C)=O)C(OC(C)=O)C2OC(C)=O)O[C@H]1n1ccc(=O)[nH]c1=O` (stereo partly shown) [Example 98C], for which the EC50 came to 2310 nM.

As for `C=C[C@@]1(O)[C@H](O)[C@@H](COP(=O)(S)OP(=O)(O)OC2OC([C@H](COC(C)=O)OC(C)=O)C(OC(C)=O)C(OC(C)=O)C2OC(C)=O)O[C@H]1c1coc2c(N)ncnc12` (stereo partly shown) [Example 125C], it took 2.89 nM to reach a half-maximal effect (EC50).

As for `C#C[C@@]1(N=[N+]=[N-])[C@H](O)[C@@H](COP(=O)(S)OP(=O)(O)OC2OC([C@H](COC(C)=O)OC(C)=O)C(OC(C)=O)C(OC(C)=O)C2OC(C)=O)O[C@H]1n1ccc(=O)[nH]c1=O` (stereo partly shown) [Example 110C], the EC50 is > 3000 nM.

In turn, `CS[C@@H]1[C@H](O)[C@@H](COP(=O)(S)OP(=O)(O)OC2OC([C@H](COC(C)=O)OC(C)=O)C(OC(C)=O)C(OC(C)=O)C2OC(C)=O)O[C@H]1n1ccc(=O)[nH]c1=O` (stereo partly shown) [Example 262C] gave an EC50 of 36.3 nM.

The compound `C#C[C@@]1(O)[C@H](O)[C@@H](COP(=O)(S)OP(=O)(O)OC2OC([C@H](COC(C)=O)OC(C)=O)C(OC(C)=O)C(OC(C)=O)C2OC(C)=O)O[C@H]1n1cnc2c(N)ncnc21` (stereo partly shown) [Example 25C] displayed a concentration giving a half-maximal response (EC50) of 20 nM.

`CC(=O)OC[C@H](OC(C)=O)C1OC(OP(=O)(O)OP(=O)(S)OC[C@H]2O[C@@H](n3cnc4c(N)ncnc43)[C@H](N3CCCC3)[C@@H]2O)C(OC(C)=O)C(OC(C)=O)C1OC(C)=O` (stereo partly shown) [Example 37C]: the EC50 was > 3000 nM.

`C=C[C@@]1(O)[C@H](O)[C@@H](CO[P@@](=O)(S)OP(=O)(O)OC2OC([C@H](COC(C)=O)OC(C)=O)C(OC(C)=O)C(OC(C)=O)C2OC(C)=O)O[C@H]1n1cnc2c(N)ncnc21` (single isomer, unassigned) [Example 31P]: the EC50 was 7.23 nM.

On to `C#C[C@@]1(F)[C@H](O)[C@@H](COP(=O)(S)OP(=O)(O)OC2OC([C@H](COC(C)=O)OC(C)=O)C(OC(C)=O)C(OC(C)=O)C2OC(C)=O)O[C@H]1n1ccc(=O)[nH]c1=O` (stereo partly shown) [Example 22C], for which the response was half-maximal at 49.1 nM (EC50).

The compound `C=C=C[C@@]1(O)[C@H](O)[C@@H](COP(=O)(S)OP(=O)(O)OC2OC([C@H](COC(C)=O)OC(C)=O)C(OC(C)=O)C(OC(C)=O)C2OC(C)=O)O[C@H]1n1cnc2c(N)ncnc21` (stereo partly shown) [Example 97C] gave a concentration giving a half-maximal response (EC50) of 1060 nM.

The compound `C=C[C@@]1(O)[C@H](O)[C@@H](COP(=O)(S)OP(=O)(O)OC2OC([C@H](COC(C)=O)OC(C)=O)C(OC(C)=O)C(OC(C)=O)C2OC(C)=O)O[C@H]1c1cnn2c(N)ncnc12` (stereo partly shown) [Example 128C] had a concentration giving a half-maximal response (EC50) of 3.62 nM.

On to `CN(C)[C@@H]1[C@H](O)[C@@H](COP(=O)(S)OP(=O)(O)OC2OC([C@@H](O)CO)C(O)C(O)C2O)O[C@H]1n1ccc(=O)[nH]c1=O` (stereo partly shown) [Example 40D], for which the EC50 amounted to 713 nM.

`CC(=O)OC[C@H](F)C1OC(OP(=O)(O)O[P@@](=O)(S)OC[C@H]2O[C@@H](n3cnc4c(N)ncnc43)[C@H](N(C)C)[C@@H]2O)C(OC(C)=O)C(OC(C)=O)C1OC(C)=O` (stereo partly shown) [Example 35K] showed an EC50 of 34.2 nM.

Take `C=C[C@@]1(N=[N+]=[N-])[C@H](O)[C@@H](COP(=O)(S)OP(=O)(O)OC2OC([C@H](COC(C)=O)OC(C)=O)C(OC(C)=O)C(OC(C)=O)C2OC(C)=O)O[C@H]1n1ccc(=O)[nH]c1=O` (stereo partly shown) [Example 108C]: the EC50 was > 3000 nM.

As to `Nc1ncnc2c1ncn2[C@@H]1O[C@H](COP(=O)(S)OP(=O)(O)OC2OC([C@@H](O)CO)C(O)C(O)C2O)[C@@H](O)[C@H]1N1CCCC1` (stereo partly shown) [Example 37D], the EC50 was > 3000 nM.

Take `CS[C@@H]1[C@H](O)[C@@H](COP(=O)(S)OP(=O)(O)OC2OC([C@@H](O)CO)C(O)C(O)C2O)O[C@H]1n1ccc(=O)[nH]c1=O` (stereo partly shown) [Example 262D]: the response was half-maximal at 101 nM (EC50).

Take `C#C[C@@]1(O)[C@H](O)[C@@H](COP(=O)(S)OP(=O)(O)OC2OC([C@H](COC(C)=O)OC(C)=O)C(OC(C)=O)C(OC(C)=O)C2OC(C)=O)O[C@H]1n1ccc(=O)[nH]c1=O` (stereo partly shown) [Example 26C]: the response was half-maximal at 45.5 nM (EC50).

Turning to `CC(=O)N[C@@H]1[C@H](O)[C@@H](COP(=O)(S)OP(=O)(O)OC2OC([C@H](COC(C)=O)OC(C)=O)C(OC(C)=O)C(OC(C)=O)C2OC(C)=O)O[C@H]1n1cnc2c(N)ncnc21` (stereo partly shown) [Example 33E], the midpoint of the response, the EC50, lay at 434 nM.

In turn, `CO[C@@H]1[C@H](O)[C@@H](COP(=O)(S)OP(=O)(O)OC2OC([C@H](COC(C)=O)OC(C)=O)C(OC(C)=O)C(OC(C)=O)C2OC(C)=O)O[C@H]1c1cnc2c(N)ncnn12` (stereo partly shown) [Example 322C] displayed an EC50 of 6.76 nM.

Turning to `C=C[C@@]1(O)[C@H](O)[C@@H](COP(=O)(S)OP(=O)(O)OC2OC([C@@H](OC(C)=O)C(COC(C)=O)OC(C)=O)C(OC(C)=O)C(OC(C)=O)C2OC(C)=O)O[C@H]1n1cnc2c(N)ncnc21` (stereo partly shown) [Example 321C], the EC50 was > 1000 nM.

For `C=C[C@@]1(O)[C@H](O)[C@@H](COP(=O)(S)OP(=O)(O)OC2OC([C@H](COC(C)=O)OC(C)=O)C(OC(C)=O)C(OC(C)=O)C2OC(C)=O)O[C@H]1c1csc2c(N)ncnc12` (stereo partly shown) [Example 265C], the EC50 was 45.4 nM.

For the compound `C#C[C@@]1(OC)[C@H](O)[C@@H](COP(=O)(S)OP(=O)(O)OC2OC([C@H](COC(C)=O)OC(C)=O)C(OC(C)=O)C(OC(C)=O)C2OC(C)=O)O[C@H]1n1ccc(=O)[nH]c1=O` (stereo partly shown) [Example 95C], the EC50 was found to be 34.8 nM.

Turning to `CN[C@@H]1[C@H](O)[C@@H](COP(=O)(S)OP(=O)(O)OC2OC([C@H](COC(C)=O)OC(C)=O)C(OC(C)=O)C(OC(C)=O)C2OC(C)=O)O[C@H]1n1cnc2c(N)ncnc21` (stereo partly shown) [Example 34C], a half-maximal response (EC50) required 345 nM.

The compound `CN[C@@H]1[C@H](O)[C@@H](COP(=O)(S)OP(=O)(O)OC2OC([C@@H](O)CO)C(O)C(O)C2O)O[C@H]1n1cnc2c(N)ncnc21` (stereo partly shown) [Example 34D] yielded an EC50 of 167 nM.

(Values after patent publication US20250034197A1, “NUCLEOSIDE-DIPHOSPHATE-HEPTOSE COMPOUNDS FOR TREATING CONDITIONS ASSOCIATED WITH ALPK1 ACTIVITY” (PYROTECH (BEIJING) BIOTECHNOLOGY CO., LTD., priority 2021, published 2025).)
